From patent US12097190B2, “Therapeutic use of levorotatory β-lactams in hematopoiesis, immuno-oncology therapy, and regulation of lipoprotein and apolipoprotein levels” (Alpha-1 Biologics, LLC, priority 2017, dated 2024)

Legend:
[1] = test system: HIV permissive (plus) clone 10; experiment: Adherence assay on coverslips, U937 plus clone 10; assay type: cell-based, human
Description: (§1) To coverslips prepared with chemoattractants as described above, 10^6 cells in 90 μl HBSS were mixed to uniformity, and incubated for 30 min in humidified 5% CO2 at 37° C. without dehydration. To detect interacting effects of stimulants, cells were delivered in an 80 μl volume to coverslips previously prepared with 10 μl of one stimulant, mixed to uniformity, and incubated for 15 min at 37° C. Subsequently, an additional stimulant was delivered in a 10 μl volume to each coverslip, mixed with pre-incubated cells to uniformity, and incubated for 30-60 min at 37° C. […] Slides were examined by epi-illumination UV microscopy on a Zeiss Axioskop Means and standard deviations were determined by counting adherent cells in at least three fields/coverslip.
(§2) Means and standard deviations represent the difference between stimulated and unstimulated adherence. […] Adherence was optimized for each chemoattractant and adherence induced by each chemoattractant was enumerated in more than three separate experiments.

[2] = test system: HIV non-permissive (minus) clone 17; experiment: Adherence assay on coverslips, U937 minus clone 17; assay type: cell-based, human
Description: as §1, §2

Substance: Ser-Phe-Leu-Leu-Arg-Asn [SFLLRN]
- stimulation of adherence [1]: Neither subclone was influenced
- stimulation of adherence [2]: Neither subclone was influenced
